Publication PMC7697191, “Identification of Novel Influenza Polymerase PB2 Inhibitors Using a Cascade Docking Virtual Screening Approach” (Molecules, 2020)

Experiments:
[1] = tested on: A/Hong Kong/8/68 (HK/68, H3N2); assay type: cell-based; conditions: MDCK cells, CPE inhibition
H1N1 PB2 CBD = H1N1 PB2 CBD (Influenza A virus, UniProt P03427); assay: SPR binding assay on immobilized H1N1 PB2 CBD; set-up: species or system influenza A/WSN/1933 (H1N1); conditions: Biacore T200, CM5 chip, affinity binding model
H1N1 PB2 CBD, sequence (P03427 318-486 limits assumed): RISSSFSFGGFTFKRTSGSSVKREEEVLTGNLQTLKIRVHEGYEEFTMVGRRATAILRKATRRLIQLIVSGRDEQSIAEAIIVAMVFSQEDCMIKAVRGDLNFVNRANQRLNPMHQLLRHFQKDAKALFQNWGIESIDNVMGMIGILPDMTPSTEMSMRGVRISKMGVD

in vitro = conditions: dog

Row | SMILES | activity against the A/Hong Kong/8/68 (HK/68, H3N2) strain, in words [1] | Kd (H1N1 PB2 CBD) [nM] | CC50 at 72 h (in vitro) [µM]
1 | Cc1cccnc1CCNc1nc2nonc2nc1NCc1cccs1 [21B1] | no activity | 1950 | > 100
2 | C=CCn1cc(CNCc2noc(-c3ccc4c(c3)OCO4)n2)c(C)n1 [11D4] |  | 1870 | > 100
3 | Cc1c(-c2ccccc2F)[nH]c2ccc(CNC(=O)CCc3cc(O)no3)cc12 [11C5] |  | 2260 | > 100
4 | O=C(O)[C@H]1C2CCC(CC2)[C@@H]1Nc1nc(-c2c[nH]c3ncc(F)cc23)ncc1F [VX-787, reference compound] |  | 54 | > 100
5 | c1cc(Cn2ccnc2-c2nc3c(s2)CCCC3)cc(-c2nnn[nH]2)c1 [12B1] |  | 6770 | > 100
6 | O=C(NCc1nc(C2CCCCC2)no1)c1cc(-c2ccccc2F)n[nH]1 [11C8] |  | 6160 | > 100
7 | NS(=O)(=O)CCCC(=O)NCc1ccc2[nH]c3c(c2c1)CCCCCC3 [13D7] |  | 1130 | > 100
8 | CCC(CC)O[C@@H]1C=C(C(=O)O)C[C@H](N)[C@H]1NC(C)=O [OC, Oseltamivir carboxylate, reference compound] |  |  | > 100
9 | C=CCn1cc(-c2cc(-c3ccc(C(=O)O)cc3)[nH]c(=N)c2C#N)cn1 [12C5] |  | 2440 | > 100
10 | c1csc(CNc2nc3nonc3nc2NCCCN2CCOCC2)c1 [11D2] |  | 210 | > 100
11 | CCSc1ncc(-c2cc(-c3c(C)nn(C)c3C)nc(N)c2C#N)cn1 [21A5] |  | 540 | > 100
12 | Cc1cc(CN2CCOc3c(O)cc(-c4ccccc4Cl)cc3C2)on1 [11C6] |  | 1700 | > 100
